The structures appear in SMILES notation. Read-outs that look alike come from different tables or passages of the source. *1 amine or outer side, *2 acyl side, *3 side chain or, on linkers, in order; H or OH if unused. Where a SMILES comes first, the peptide text is derived from it. Bridges are numbered along the chain shown (N, C = ends). Roman numbers before positions name the chains, in order. [ ]: non-standard residue; d: D form. Actinocin(9to1) = Cc1c2oc3c(C)ccc(C(=O)[*:1])c3nc-2c(C(=O)[*:2])c(N)c1=O; NMeV = CN[C@H](C(=O)O)C(C)C; Sar = CNCC(=O)O

The subject of data set [1] is rat liver microsomes. Briefly: Stimulation of adrenochrome formation (superoxide) by rat hepatic microsomal incubations. The data set is classed as biochemical. The settings on record: for adrenochrome formation in presence of SOD: with SOD (superoxide dismutase) 5 ug/mL; for percentage stimulation of adrenochrome formation / adrenochrome formation: without SOD; for percentage stimulation of adrenochrome formation: (drug-stimulated rate - basal rate)/basal rate × 100; for adrenochrome formation: average ± standard error of triplicate. The source says:
It has been reported that the quinone imino chromophore of actinomycin can be subjected to enzyme-catalyzed single-electron reduction to give free-radical species that generate superoxides by reacting with molecular oxygen. The process needs a reductive cofactor NADPH, which is oxidized to NADP^+ during the process, giving a change in the absorbance at 340 nm that can be measured spectrophotometerically. Alternatively, the superoxides generated during the process may be allowed to react with epinephrine to produce adrenochrome, a chromophore with strong absorbance at 480 nm that can be measured spectrophotmetrically.
The superoxide formations were studied via NADPH oxidation catalyzed by AMD analogues in the presence of rat liver microsomes. […] The process of adrenochrome formation is inhibited by superoxide dismutase, confirming that superoxide is indeed generated in these systems.
^a The percentage stimulation = (drugstimulated rate basal rate)/basa
rate × 100 and is shown in parentheses. NADPH oxidation was measure
at 340 nm and adrenochrome formation was measured at 489 nm; the values
are average ± standard errors of triplicate analyses. ^b SOD,

Data set [2] has as its system rat liver microsomes. Briefly: Metabolism in rat liver microsomes (M). The data set is classed as in vitro ADME. The settings on record: 6 h, NADPH-generating system. How it is done: In this respect, actinomycin is only about 30% as efficient as its synthetic analogues, RAD III (3c) and SAD (2) (Table II). Metabolic Studies, Metabolism in the Presence of Tumor Cell Homogenates and Rat Liver Microsomes. The cell homogenates (P388 cells were sonicated and were incubated at 37° C. with analogues for 16 h. Rat microsomes were harvested from phenobarbital-induced rats by standard procedure. Incubations were carried out for 6 h in the presence of a NADPH-generating system, i.e., glucose-6-phosphate dehydrogenase and glucose 6-phosphate. The metabolites and their water-soluble conjugates were isolated and identified with the use of tritiated analogues.
It was observed that the RAD analogues are metabolized to SAD (2) with the loss of oxazole ring. […] In tumor cells, a larger fraction of SAD (2) (30-50%) remains unmetabolized. SAD is found to form glucuronide and sulfate conjugates only in tumor cells. […] Isolation of SAD from RAD analogues is a very important step, because SAD is found to be a potent and effective antitumor agent in several murine tumor systems (Tables V-XII).
For orientation: Microsomes from liver hold many membrane-bound enzymes, among them those of drug oxidation.

For a further data set, the system named is P388 cells. The experiment in a line: Inhibition of nucleic acid synthesis in P388 cells in vitro. The format is cell-based, murine. The source says:
(§1) In addition to the P388 cells, this inhibitory activity in human carcinoma HT-29 grown in tissue culture has been also examined. The values of the drug concentration producing 50% inhibition of the incorporation of [^3 H]-thymidine and [^14 C] uridine into nucleic acid macromolecules are presented in Table V. These values are taken as estimates of the inhibition of DNA and RNA synthesis. […] Furthermore, the inhibitory activities of these analogues are three-to fivefold higher than AMD; the order of potency of the analogues for their inhibition of DNA synthesis is:
(§2) DNA and RNA synthesis in P388 and HT-29 cells lines was monitored in the presence of drugs, and the rates of inhibition of their synthesis were estimated from the amounts of [2-^14 C]-uridine and [^3 H]-thymidine into RNA and DNA, respectively, according to the methods described previously.
(§3) ^a Human colon carcinoma in culture, IC50, drug concentration
(§4) producing a 50% inhibition of incorporation of precursor [^3 H]
(§5) thymidine into DNA and [^14 C] uridine into RNA in the cell lines,
(§6) isolated as acid preciptable materials. Data are average of replicate

For data set [3], the system named is human colon carcinoma HT-29. Briefly: Inhibition of nucleic acid synthesis in HT-29 cells in vitro. The data set is classed as cell-based. The settings on record: 2-h exposure.
From the text: as §1, §2
In brief, for HT-29 colon carcinoma monolayer cells, 10^4 cells in each of five wells per concentration, were incubated with radiolabelec nucleosides ([…] each) for the last hour of a 2-h drug exposure, following which the cells were aspirated and washed with buffered medium. Cells were trypsinized and counted in the Coulter counter. The cell suspensions were then precipitated onto glass fiber filter discs (Whatman 934H), with 10% trichloracetic acid and twice with 95% ethanol and dried, and the incorporation of radionucleotides was estimated.
In addition, to investigate the cross contamination of radioactivity from [2^14 C] uridine, the cells were lysed with ice-cold 1% Triton X for 2.5 min. Macromolecules were precipitated with the addition of 10% perchloric acid (5% in the medium) and centrifuged; the pellet in 1% NaCl was treated with an equal volume of phenol reagent, the emulsion was centrifuged at 10000 g for 30 min at 4° C., and the separated layer was adjusted to 1% NaCl and treated with an equal volume of 2-ethoxyethanol to precipitate the nucleic acids. The precipitate was washed with 75% ethanol and dissolved in an aqueous solution containing 2% sodium acetate and 1.5% NaCl. An aliquot was used for estimation of the total radionucleotide incorporation. Ribonuclease, previously heated to 80° C. for 10 min to destroy deoxyribonuclease activity, was added, and the mixture was incubated at 37° C. for 30 min.
as §3, §4, §5, §6

A short description of data set [4]: Toxic deaths in nontumored mice treated in parallel (colon 38 experiment). The data set is classed as in vivo. The source says: × 100; in parenthesis, number of over 100 day survivors/number of
mice in a group of nontumored mice treated in parallel with the
tumorbearing mice and observed for 100 days.

The subject of the next data set is mammary MX-1. The experiment in a line: Treatment of mammary MX-1 tumor. The data set is classed as in vivo. The settings on record: at the doses tested.
For another data set, the system named is lung LX-1. The experiment in a line: Treatment of lung LX-1 tumor. The data set is classed as in vivo. The settings on record: at the doses tested.
For the next data set, the system named is P388 Leukemia. The experiment in a line: Minimum effective dose in P388 tumor bearing mice. The data set is classed as in vivo. The settings on record: for therapeutic index MTD/MED: MTD in normal BDF1 mice / MED in P388 tumor bearing mice; for MED (minimum effective dose), dose giving 45% increase in life span over control: ip once on days 1, 5, and 9, from plotted log-dose response data. The source says: ^a Drugs administered ip once on days 1, 5, and 9 starting 1 day afte
tumor implantation. Determinations were made from analysis of plotted
logdose response data. ^b MED (minimum effective dose) is the dose
(milligram/killogram) providing an increase in life span of 45% over

The nature of data set [5]: Maximum tolerated dose (LD10) in tumor-free male mice. The settings on record: ip days 1, 5, 9; deaths observed during 21 days; from plot of log dose vs percent mortality. The method, then:
The analogues were also tested in tumor-free male mice for their LD10 values (Table XIV). The animals were given a broad range of doses (ip) on days 1, 5, and 9. The maximum tolerated doses of AMD and the analogues that caused death in only 10% of the tested animals in 21 days (i.e., LD10) were recorded as MTD. […] On the basis of these values, the calculated therapeutic index values of SAD is 96, and those of RAD I, II, and III are 60, 67, and 70, respectively.
control in P388 tumor bearing mice. ^c MTD (maximum tolerated dose) i
the lethal dose (milligram/kilogram) for 10% normal BDF1 male mice
days). Values were calculated from a plot of log dose vs percent

[6] abbreviates: [3H]thymidine incorporation, read-out: IC50, DNA synth.
Where [7] appears, read: [14C]uridine incorporation, read-out: IC50, RNA synth.
[8] abbreviates: dose 0.30 mg/kg iv days 1, 5, 9.
[9] abbreviates: dose 0.60 mg/kg iv days 1, 5, 9.

Broadly, the IC50 is the concentration that inhibits the measured activity by half. `Cc1c2oc3c(C)ccc(C(=O)N[C@@H]4C(=O)N[C@H](C(C)C)C(=O)N5CCC[C@H]5C(=O)N(C)CC(=O)N(C)[C@@H](C(C)C)C(=O)O[C@@H]4C)c3nc-2c(C(=O)N[C@@H]2C(=O)N[C@H](C(C)C)C(=O)N3CCC[C@H]3C(=O)N(C)CC(=O)N(C)[C@@H](C(C)C)C(=O)O[C@@H]2C)c(N)c1=O` [AMD (1), Actinomycin D] (I: T[dV]P[Sar][NMeV] / II: T[dV]P[Sar][NMeV]; ester I:1-I:C, II:1-II:C; linker I:N-II:N via Actinocin(9to1)): the “adrenochrome formation in presence of SOD” value in the data set on rat liver microsomes [1] is “inhibited”. Moreover, in the data set with rat liver microsomes [1], the “percentage stimulation of adrenochrome formation” value stood at 8.5%. In addition, the adrenochrome formation in the data set with rat liver microsomes [1] was 2.29 ± 0.33 nmol/min per mg of protein. Besides, the percent unconverted drug in the data set on rat liver microsomes [2] is 100%. For the same compound, the IC50 with P388 cells (setting [6]) is 1100 ± 90 nM; with P388 cells (setting [7]), 50 ± 5 nM; in data set [3] (setting [6]), 900 ± 80 nM; in data set [3] (setting [7]), 100 ± 11 nM. The toxic deaths in [4] (dose 0.075 mg/kg iv days 1, 5, 9) is recorded as 0/9; in data set [4] (dose 0.15 mg/kg iv days 1, 5, 9) it was 1/9; in data set [4] (setting [8]), 0/9; in [4] (dose 0.45 mg/kg iv days 1, 5, 9), 1/9; in data set [4] (setting [9]), 4/9. Besides, the “response of mammary MX-1 to treatment” value in the data set with mammary MX-1 was “practically ineffective”. Besides, the “response of lung LX-1 to treatment” value with lung LX-1 was “practically ineffective”. Also, the “therapeutic index MTD/MED” value with P388 Leukemia amounted to 4. Further, the “MED (minimum effective dose), dose giving 45% increase in life span over control” value in the data set with P388 Leukemia is recorded as 0.0625 milligram/killogram. In data set [5], the “MTD (maximum tolerated dose), lethal dose for 10% of normal mice (LD10)” value came to 0.25 milligram/kilogram.
`Cc1c2oc3c(C)c4oc(CC(=O)NCCCCN)nc4c(C(=O)N[C@@H]4C(=O)N[C@H](C(C)C)C(=O)N5CCC[C@H]5C(=O)N(C)CC(=O)N(C)[C@@H](C(C)C)C(=O)O[C@@H]4C)c3nc-2c(C(=O)N[C@@H]2C(=O)N[C@H](C(C)C)C(=O)N3CCC[C@H]3C(=O)N(C)CC(=O)N(C)[C@@H](C(C)C)C(=O)O[C@@H]2C)c(N)c1=O` [RAD III (3c)]: in the data set on rat liver microsomes [1], the “adrenochrome formation in presence of SOD” value is “inhibited”, the “percentage stimulation of adrenochrome formation” value amounted to 870% and the adrenochrome formation is listed as 22.1 ± 2.2 nmol/min per mg of protein. Further, in the data set with rat liver microsomes [2], the “percent isolated: tissue bound” value was determined as 5.0 ± 0.5%, the “percent isolated: unidentified metabolite” value was 8.0 ± 1.0%, the “percent metabolite isolated: SAD” value was 65.0 ± 5.5% and the “percent metabolite isolated: SAD-glucuronide and/or sulfate” value is given as “nil”. In the data set on rat liver microsomes [2], the “percent metabolite isolated: protein conjugates” value turned out to be 10.0 ± 10% and the percent unconverted drug was 10.0 ± 1.0%. Moreover, in the data set with P388 cells (setting [6]), the IC50 turned out to be 430 ± 38 nM. Also, in the data set with P388 cells (setting [7]), the IC50 was 55 ± 7 nM. Also, the 50% inhibitory concentration (IC50) in data set [3] (setting [6]) came out at 365 ± 45 nM. The IC50 in data set [3] (setting [7]) is 45 ± 8 nM. Besides, the toxic deaths in data set [4] (setting [8]) is listed as 0/9. For the same compound, the toxic deaths in [4] (setting [9]) is listed as 4/9. Further, in [4] (dose 1.20 mg/kg iv days 1, 5, 9), the toxic deaths is 2/9. In the data set on mammary MX-1, the “response of mammary MX-1 to treatment” value is “practically ineffective”. Moreover, the “response of lung LX-1 to treatment” value in the data set on lung LX-1 is listed as “practically ineffective”. In the data set on P388 Leukemia, the “therapeutic index MTD/MED” value is reported as 70 and the “MED (minimum effective dose), dose giving 45% increase in life span over control” value was determined as 0.05 milligram/killogram. Besides, in data set [5], the “MTD (maximum tolerated dose), lethal dose for 10% of normal mice (LD10)” value is 3.50 milligram/kilogram.

The record behind these values is patent US4966962A, “Reverse analogue of actinomycin D” (Trustees of Boston University, priority 1988, dated 1990).
